Laboratory results taken from the SangsterLogP compilation.

Assay: method code SF-AS, from DOI: 10.1021/jm00294a001, PMID: 5116225

Structure (SMILES)	logP
C=C1C(=O)OC2C1C(OC(=O)C(C)=CC)CC(O)(CCl)C1C(OC(C)=O)C=C(C)C21O (centres undefined)	1.42
C=CC12COC(=O)C(=C)C1C(O)C1C(=C)C(=O)OC1C2 (centres undefined)	-0.14
C=C1C(=O)O[C@H]2CC3=C[C@@H](C[C@@]4(C)O[C@@H]4[C@@H](O)[C@H]12)OC3=O	-0.64
C=C1C(=O)O[C@H]2C[C@@H](C)[C@@H]3C=CC(=O)[C@@]3(C)C[C@H]12	1.17
C=C1C(=O)O[C@@H]2C[C@@H](C)[C@@H]3C=CC(=O)[C@@]3(C)[C@@H](O)[C@H]12	0.87
C=C1C(=O)OC2C=C(C)C(O)CC=C(C)CCC12 (centres undefined)	1.4
C=C1C(=O)O[C@@H]2[C@H]1CC[C@H](C)[C@@H]1C[C@@H](O)C(=O)[C@@]21C	0.66
C=C1C(=O)OC2C1CCC(C)C1(O)C=CC(=O)C21C (centres undefined)	0.77
C=C1C(=O)O[C@@H]2/C=C(/C)C[C@H](O)/C=C(/C)CC[C@@H]12	1.23
C=C1C(=O)OC2C=C(C)C(OC(C)=O)CC(O)C(C)=CC(OC(=O)C(C)=CC)C12 (centres undefined)	1.16
C=C1C(=O)OC2C=C(C)C3(O)C=CC(C)(CC(OC(=O)C(=CC)COC(C)=O)C12)O3 (centres undefined)	1.19

Now from value to compound:

logP	Structure (SMILES)
0.31	C=C[C@@]12COC(=O)C(=C)[C@@H]1[C@H]1OC(=O)C(=C)[C@@H]1[C@@H](O)C2
0.25	C=CC12COC(=O)C(=C)C1C(OC(C)=O)C1C(=C)C(=O)OC1C2 (centres undefined)
0.79	C=CC12COC(=O)C(=C)C1C1OC(=O)C(=C)C1C(OC(C)=O)C2 (centres undefined)
0.76	C=C1C(=O)O[C@H]2[C@H]1[C@H](OC(=O)/C(C)=C\C)C[C@]1(CO1)[C@@H]1[C@H](OC(C)=O)C=C(C)[C@]21O
0.69	C=C(C)C(=O)O[C@H]1CC2=C[C@@H](C[C@@]3(C)O[C@@H]3[C@H]3OC(=O)C(=C)[C@@H]31)OC2=O
1.14	C=C1C(=O)OC2CC(C)=CCC(OC(C)=O)C(C)=CC(OC(C)=O)C12 (centres undefined)
0.83	C=C1C(=O)O[C@@H]2[C@H]1CC[C@H](C)[C@]1(O)CCC(=O)[C@@]21C
0.23	C=C1C(=O)OC2C1C(O)CC(C)C1CCC(=O)C12C (centres undefined)
1.03	C=C1C(=O)OC2C1CCC(C)C1C=CC(=O)C12C (centres undefined)
1.69	C=C1C(=O)OC2C1C(OC(=O)C(C)=CC)CC(=C)C1C(O)C3OC3(C)C21O (centres undefined)
1.56	C=C[C@@]12COC(=O)C(=C)[C@@H]1[C@H]1OC(=O)C(=C)[C@@H]1[C@@H](OC(=O)C(=C)C)C2
1.05	C=C1C(=O)O[C@H]2[C@H]1[C@@H](OC(=O)C=C(C)C)CC1=C[C@@H](C[C@@]3(C)O[C@H]23)OC1=O
1.09	C=C1C(=O)OC2C=C(C)C3C(OC(C)=O)CC(O)C3CC12 (centres undefined)
